From ChEMBL document CHEMBL4819125, “Synthesis and anti-proliferation activity of mogrol derivatives bearing quinoline and triazole moieties” (Bioorg Med Chem Lett, 2021)
The source made the active and inactive calls. The rule behind the calls is not given here.

How the values were obtained:
A549 [1] = assay: Antiproliferative activity against human A549 cells assessed as reduction in cell growth at 30 uM by CCK8 assay relative to control; format: functional
NCI-H460 = assay: Antiproliferative activity against human NCI-H460 cells assessed as reduction in cell growth at 30 uM by CCK8 assay relative to control; format: functional
A549 [2] = assay: Antiproliferative activity against human A549 cells assessed as reduction in cell growth by CCK8 assay; format: functional, cell-based
A549 [3] = assay: Induction of apoptosis in human A549 cells assessed as viable cells at 3.75 uM incubated for 72 hrs by annexin V-FITC and PI staining based flow cytometry analysis (reference value: 95.98 %); format: functional; settings: read-out: Activity
A549 [4] = assay: Induction of apoptosis in human A549 cells assessed as early apoptotic cells at 3.75 uM incubated for 72 hrs by annexin V-FITC and PI staining based flow cytometry analysis (reference value: 2.25 %); format: functional
A549 [5] = assay: Induction of apoptosis in human A549 cells assessed as late apoptotic cells at 3.75 uM incubated for 72 hrs by annexin V-FITC and PI staining based flow cytometry analysis (reference value: 0.5 %); format: functional
A549 [6] = assay: Induction of apoptosis in human A549 cells assessed as necrotic cells at 3.75 uM incubated for 72 hrs by annexin V-FITC and PI staining based flow cytometry analysis (reference value: 1.27 %); format: functional
A549 [7] = assay: Induction of apoptosis in human A549 cells assessed as viable cells at 7.5 uM incubated for 72 hrs by annexin V-FITC and PI staining based flow cytometry analysis (reference value: 95.98 %); format: functional; settings: read-out: Activity
A549 [8] = assay: Induction of apoptosis in human A549 cells assessed as early apoptotic cells at 7.5 uM incubated for 72 hrs by annexin V-FITC and PI staining based flow cytometry analysis (reference value: 2.25 %); format: functional
A549 [9] = assay: Induction of apoptosis in human A549 cells assessed as late apoptotic cells at 7.5 uM incubated for 72 hrs by annexin V-FITC and PI staining based flow cytometry analysis (reference value: 0.5 %); format: functional
A549 [10] = assay: Induction of apoptosis in human A549 cells assessed as necrotic cells at 7.5 uM incubated for 72 hrs by annexin V-FITC and PI staining based flow cytometry analysis (reference value: 1.27 %); format: functional
A549 [11] = assay: Induction of apoptosis in human A549 cells assessed as viable cells at 15 uM incubated for 72 hrs by annexin V-FITC and PI staining based flow cytometry analysis (reference value: 95.98 %); format: functional; settings: read-out: Activity
A549 [12] = assay: Induction of apoptosis in human A549 cells assessed as early apoptotic cells at 15 uM incubated for 72 hrs by annexin V-FITC and PI staining based flow cytometry analysis (reference value: 2.25 %); format: functional
A549 [13] = assay: Induction of apoptosis in human A549 cells assessed as late apoptotic cells at 15 uM incubated for 72 hrs by annexin V-FITC and PI staining based flow cytometry analysis (reference value: 0.5 %); format: functional
A549 [14] = assay: Induction of apoptosis in human A549 cells assessed as necrotic cells at 15 uM incubated for 72 hrs by annexin V-FITC and PI staining based flow cytometry analysis (reference value: 1.27 %); format: functional
A549 [15] = assay: Induction of apoptosis in human A549 cells assessed as early apoptotic cells incubated for 72 hrs by annexin V-FITC and PI staining based flow cytometry analysis; format: functional, cell-based; settings: dose 3.75-15 µM
A549 [16] = assay: Induction of apoptosis in human A549 cells assessed as late apoptotic cells incubated for 72 hrs by annexin V-FITC and PI staining based flow cytometry analysis; format: functional, cell-based; settings: dose 3.75-15 µM
A549 [17] = assay: Induction of cell cycle arrest in human A549 cells assessed as G0/G1 phase at 3.75 uM incubated for 72 hrs by PI staining based flow cytometry analysis (reference value: 53.87 %); format: functional
A549 [18] = assay: Induction of cell cycle arrest in human A549 cells assessed as G2/M phase at 3.75 uM incubated for 72 hrs by PI staining based flow cytometry analysis (reference value: 14.78 %); format: functional
A549 [19] = assay: Induction of cell cycle arrest in human A549 cells assessed as S phase at 3.75 uM incubated for 72 hrs by PI staining based flow cytometry analysis (reference value: 31.35 %); format: functional
A549 [20] = assay: Induction of cell cycle arrest in human A549 cells assessed as G0/G1 phase at 7.5 uM incubated for 72 hrs by PI staining based flow cytometry analysis (reference value: 53.87 %); format: functional
A549 [21] = assay: Induction of cell cycle arrest in human A549 cells assessed as G2/M phase at 7.5 uM incubated for 72 hrs by PI staining based flow cytometry analysis (reference value: 14.78 %); format: functional
A549 [22] = assay: Induction of cell cycle arrest in human A549 cells assessed as S phase at 7.5 uM incubated for 72 hrs by PI staining based flow cytometry analysis (reference value: 31.35 %); format: functional
A549 [23] = assay: Induction of cell cycle arrest in human A549 cells assessed as G0/G1 phase at 15 uM incubated for 72 hrs by PI staining based flow cytometry analysis (reference value: 53.87 %); format: functional
A549 [24] = assay: Induction of cell cycle arrest in human A549 cells assessed as G2/M phase at 15 uM incubated for 72 hrs by PI staining based flow cytometry analysis (reference value: 14.78 %); format: functional
A549 [25] = assay: Induction of cell cycle arrest in human A549 cells assessed as S phase at 15 uM incubated for 72 hrs by PI staining based flow cytometry analysis (reference value: 31.35 %); format: functional
A549 [26] = assay: Induction of cell cycle arrest in human A549 cells assessed as G0/G1 phase incubated for 72 hrs by PI staining based flow cytometry analysis; format: functional; settings: dose 3.75-15 µM
[27] = molecular target: Signal transducer and activator of transcription 3 (Homo sapiens) (UniProt P40763); assay: Inhibition of STAT3 in human A549 cells assessed as reduction in STAT3 phosphorylation incubated for 72 hrs by Western blot analysis; format: cell-based; settings: dose 3.75-15 µM
Signal transducer and activator of transcription 3 (Homo sapiens), sequence (P40763 whole entry): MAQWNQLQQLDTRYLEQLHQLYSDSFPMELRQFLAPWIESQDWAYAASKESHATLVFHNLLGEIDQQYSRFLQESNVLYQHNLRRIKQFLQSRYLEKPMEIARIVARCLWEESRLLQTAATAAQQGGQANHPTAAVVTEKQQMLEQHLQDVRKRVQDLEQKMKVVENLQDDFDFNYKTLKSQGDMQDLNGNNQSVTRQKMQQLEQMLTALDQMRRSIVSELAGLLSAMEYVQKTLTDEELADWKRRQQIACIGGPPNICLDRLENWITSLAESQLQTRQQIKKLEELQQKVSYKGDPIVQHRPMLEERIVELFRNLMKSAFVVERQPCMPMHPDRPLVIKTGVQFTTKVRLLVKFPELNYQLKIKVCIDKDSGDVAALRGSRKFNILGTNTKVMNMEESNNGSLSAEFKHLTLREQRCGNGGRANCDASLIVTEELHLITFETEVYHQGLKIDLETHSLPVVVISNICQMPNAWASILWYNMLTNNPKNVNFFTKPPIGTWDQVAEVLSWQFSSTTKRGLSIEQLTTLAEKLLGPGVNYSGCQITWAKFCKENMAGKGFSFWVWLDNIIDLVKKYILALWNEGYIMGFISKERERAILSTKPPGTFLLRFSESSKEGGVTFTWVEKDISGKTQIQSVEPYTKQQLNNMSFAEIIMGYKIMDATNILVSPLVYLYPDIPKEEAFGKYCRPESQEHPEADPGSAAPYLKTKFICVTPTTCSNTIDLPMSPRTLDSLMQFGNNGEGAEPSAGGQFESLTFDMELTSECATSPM

A549 [28] = assay: Effect on STAT3 expression in human A549 cells at 3.75 to 15 uM incubated for 72 hrs by Western blot analysis; format: functional, cell-based; settings: dose 3.75-15 µM

C[C@H](CC[C@@H](O)C(C)(C)O)[C@H]1CC[C@@]2(C)[C@@H]3CC=C4[C@@H](CC[C@H](O)C4(C)C)[C@]3(C)[C@H](OC(=O)Cn3cc(-c4cccc(Cl)c4)nn3)C[C@]12C
inhibition at 30 µM (A549 [1]): 90.2% | inhibition at 30 µM (NCI-H460): 33.8% | IC50 (A549 [2]): 4.47 µM | viability at 3.75 µM (A549 [3]): 94.9% | Activity (A549 [4]): 2.28% | Activity (A549 [5]): 0.79% | Activity (A549 [6]): 2.07% | viability at 7.5 µM (A549 [7]): 91.7% | Activity (A549 [8]): 3.66% | Activity (A549 [9]): 1.27% | Activity (A549 [10]): 3.37% | viability at 15 µM (A549 [11]): 91.7% | Activity (A549 [12]): 4.8% | Activity (A549 [13]): 1.53% | Activity (A549 [14]): 1.92% | Activity (A549 [15]): Dose-Dependent Effect | Activity (A549 [16]): Dose-Dependent Effect | Activity (A549 [17]): 55.45% | Activity (A549 [18]): 13.93% | Activity (A549 [19]): 30.62% | Activity (A549 [20]): 60.04% | Activity (A549 [21]): 11.5% | Activity (A549 [22]): 28.46% | Activity (A549 [23]): 72.72% | Activity (A549 [24]): 11.25% | Activity (A549 [25]): 16.03% | Activity (A549 [26]): Dose-Dependent Effect | inhibition [27]: Dose-Dependent Effect | inhibition (A549 [28]): Active
